Experimental data from the NIST ThermoML archive (doi:10.1016/j.fluid.2018.05.023).
± gives the expanded uncertainty stated by the source.

How the values were obtained:
[1] = Crystal; DTA
[2] = Molar enthalpy of transition or fusion; settings: Crystal; DSC

- Normal melting temperature [1]: 92.00 ± 1.1 °C
- Molar enthalpy of transition or fusion [2]: 2.36 ± 0.112 kcal/mol
SMILES: Cn1cc([N+](=O)[O-])cn1 [1-methyl-4-nitropyrazole]
